Measurements as given in the supplement of paper PMC10307832.

Key:
Assay in all cases: relative viability (nuclei count vs DMSO), 5 days (fraction); higher = more cells survive
ABC-1 = system: ABC-1
In short: (§1)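 Lung cancer cell lines in 1536-well plates were dosed by pin tool the day after seeding, either with one drug alone or with a fixed anchor-drug dose plus five library-drug doses (not always all listed) in √10 steps. After 5 days, cells were fixed and their nuclei stained in one step (final 0.05% Triton X-100, 1% formaldehyde, 1 ug/ml Hoechst), then counted on 4× images. Relative viability is the nuclei count in treated wells divided by that in vehicle wells. Values are medians of duplicate plates.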

COR-L23 = system: COR-L23
In short: as §1

EPLC-272H = system: EPLC-272H
In short: as §1

HARA = system: HARA
In short: as §1

HCC-15 = system: HCC-15
In short: as §1

HCC-44 = system: HCC-44
In short: as §1

HOP-62 = system: HOP-62
In short: as §1

LC-2-ad = system: LC-2-ad
In short: as §1

LU99A = system: LU99A
In short: as §1

NCI-H1355 = system: NCI-H1355
In short: as §1

NCI-H1651 = system: NCI-H1651
In short: as §1

NCI-H1915 = system: NCI-H1915
In short: as §1

NCI-H1993 = system: NCI-H1993
In short: as §1

NCI-H2023 = system: NCI-H2023
In short: as §1

NCI-H2085 = system: NCI-H2085
In short: as §1

NCI-H2126 = system: NCI-H2126
In short: as §1

NCI-H2347 = system: NCI-H2347
In short: as §1

NCI-H650 = system: NCI-H650
In short: as §1

NCI-H838 = system: NCI-H838
In short: as §1

PC-14 = system: PC-14
In short: as §1

SW 1573 = system: SW 1573
In short: as §1

UMC-11 = system: UMC-11
In short: as §1

## CC(=O)O[C@@]12CO[C@@H]1C[C@H](O)[C@@]1(C)C(=O)[C@H](O)C3=C(C)[C@@H](OC(=O)[C@H](O)[C@@H](NC(=O)OC(C)(C)C)c4ccccc4)C[C@@](O)([C@@H](OC(=O)c4ccccc4)[C@H]21)C3(C)C [Docetaxel] + N=C(N)NC(=N)NCCc1ccccc1 [Phenformin] (partner 250 µM)
ABC-1; first compound 0.0002 µM
  relative viability: 0.27
ABC-1; first compound 0.000632 µM
  relative viability: 0.226
ABC-1; first compound 0.002 µM
  relative viability: 0.232
ABC-1; first compound 0.006325 µM
  relative viability: 0.223
ABC-1; first compound 0.02 µM
  relative viability: 0.212
COR-L23; first compound 0.0002 µM
  relative viability: 0.399
COR-L23; first compound 0.000632 µM
  relative viability: 0.32
COR-L23; first compound 0.002 µM
  relative viability: 0.167
COR-L23; first compound 0.006325 µM
  relative viability: 0.106
COR-L23; first compound 0.02 µM
  relative viability: 0.098
EPLC-272H; first compound 0.0002 µM
  relative viability: 0.304
EPLC-272H; first compound 0.000632 µM
  relative viability: 0.242
EPLC-272H; first compound 0.002 µM
  relative viability: 0.194
EPLC-272H; first compound 0.006325 µM
  relative viability: 0.0792
EPLC-272H; first compound 0.02 µM
  relative viability: 0.0848
HARA; first compound 0.0002 µM
  relative viability: 0.387
HARA; first compound 0.000632 µM
  relative viability: 0.19
HARA; first compound 0.002 µM
  relative viability: 0.0801
HARA; first compound 0.006325 µM
  relative viability: 0.0508
HARA; first compound 0.02 µM
  relative viability: 0.0419
HCC-15; first compound 0.0002 µM
  relative viability: 0.402
HCC-15; first compound 0.000632 µM
  relative viability: 0.315
HCC-15; first compound 0.002 µM
  relative viability: 0.181
HCC-15; first compound 0.006325 µM
  relative viability: 0.203
HCC-15; first compound 0.02 µM
  relative viability: 0.113
HCC-44; first compound 0.0002 µM
  relative viability: 0.185
HCC-44; first compound 0.000632 µM
  relative viability: 0.113
HCC-44; first compound 0.002 µM
  relative viability: 0.113
HCC-44; first compound 0.006325 µM
  relative viability: 0.101
HCC-44; first compound 0.02 µM
  relative viability: 0.0735
HOP-62; first compound 0.0002 µM
  relative viability: 0.671
HOP-62; first compound 0.000632 µM
  relative viability: 0.501
HOP-62; first compound 0.002 µM
  relative viability: 0.322
LC-2-ad; first compound 0.0002 µM
  relative viability: 0.497
LC-2-ad; first compound 0.000632 µM
  relative viability: 0.494
LC-2-ad; first compound 0.002 µM
  relative viability: 0.327
LC-2-ad; first compound 0.006325 µM
  relative viability: 0.243
LU99A; first compound 0.0002 µM
  relative viability: 0.811
LU99A; first compound 0.000632 µM
  relative viability: 0.656
LU99A; first compound 0.002 µM
  relative viability: 0.364
LU99A; first compound 0.006325 µM
  relative viability: 0.335
LU99A; first compound 0.02 µM
  relative viability: 0.242
NCI-H1355; first compound 0.0002 µM
  relative viability: 0.463
NCI-H1355; first compound 0.000632 µM
  relative viability: 0.402
NCI-H1355; first compound 0.002 µM
  relative viability: 0.385
NCI-H1355; first compound 0.006325 µM
  relative viability: 0.287
NCI-H1355; first compound 0.02 µM
  relative viability: 0.217
NCI-H1651; first compound 0.0002 µM
  relative viability: 0.266
NCI-H1651; first compound 0.000632 µM
  relative viability: 0.342
NCI-H1651; first compound 0.002 µM
  relative viability: 0.194
NCI-H1651; first compound 0.006325 µM
  relative viability: 0.087
NCI-H1651; first compound 0.02 µM
  relative viability: 0.0897
NCI-H1915; first compound 0.0002 µM
  relative viability: 0.364
NCI-H1915; first compound 0.000632 µM
  relative viability: 0.312
NCI-H1915; first compound 0.002 µM
  relative viability: 0.21
NCI-H1915; first compound 0.006325 µM
  relative viability: 0.147
NCI-H1915; first compound 0.02 µM
  relative viability: 0.116
NCI-H1993; first compound 0.0002 µM
  relative viability: 0.559
NCI-H1993; first compound 0.000632 µM
  relative viability: 0.604
NCI-H1993; first compound 0.002 µM
  relative viability: 0.556
NCI-H1993; first compound 0.006325 µM
  relative viability: 0.489
NCI-H1993; first compound 0.02 µM
  relative viability: 0.439
NCI-H2023; first compound 0.0002 µM
  relative viability: 0.358
NCI-H2023; first compound 0.000632 µM
  relative viability: 0.292
NCI-H2023; first compound 0.002 µM
  relative viability: 0.118
NCI-H2023; first compound 0.006325 µM
  relative viability: 0.0961
NCI-H2023; first compound 0.02 µM
  relative viability: 0.0806
NCI-H2085; first compound 0.0002 µM
  relative viability: 0.735
NCI-H2085; first compound 0.000632 µM
  relative viability: 0.651
NCI-H2085; first compound 0.002 µM
  relative viability: 0.461
NCI-H2085; first compound 0.006325 µM
  relative viability: 0.389
NCI-H2085; first compound 0.02 µM
  relative viability: 0.194
NCI-H2126; first compound 0.0002 µM
  relative viability: 0.517
NCI-H2126; first compound 0.000632 µM
  relative viability: 0.468
NCI-H2126; first compound 0.002 µM
  relative viability: 0.297
NCI-H2126; first compound 0.006325 µM
  relative viability: 0.33
NCI-H2126; first compound 0.02 µM
  relative viability: 0.223
NCI-H2347; first compound 0.0002 µM
  relative viability: 0.496
NCI-H2347; first compound 0.000632 µM
  relative viability: 0.303
NCI-H2347; first compound 0.002 µM
  relative viability: 0.295
NCI-H2347; first compound 0.006325 µM
  relative viability: 0.201
NCI-H2347; first compound 0.02 µM
  relative viability: 0.256
NCI-H650; first compound 0.0002 µM
  relative viability: 0.447
NCI-H650; first compound 0.000632 µM
  relative viability: 0.397
NCI-H650; first compound 0.002 µM
  relative viability: 0.332
NCI-H650; first compound 0.006325 µM
  relative viability: 0.19
NCI-H650; first compound 0.02 µM
  relative viability: 0.21
NCI-H838; first compound 0.0002 µM
  relative viability: 0.533
NCI-H838; first compound 0.000632 µM
  relative viability: 0.386
NCI-H838; first compound 0.002 µM
  relative viability: 0.198
NCI-H838; first compound 0.006325 µM
  relative viability: 0.161
NCI-H838; first compound 0.02 µM
  relative viability: 0.108
PC-14; first compound 0.0002 µM
  relative viability: 0.575
PC-14; first compound 0.000632 µM
  relative viability: 0.212
PC-14; first compound 0.002 µM
  relative viability: 0.129
PC-14; first compound 0.006325 µM
  relative viability: 0.0718
PC-14; first compound 0.02 µM
  relative viability: 0.0382
SW 1573; first compound 0.0002 µM
  relative viability: 0.311
SW 1573; first compound 0.000632 µM
  relative viability: 0.344
SW 1573; first compound 0.002 µM
  relative viability: 0.159
SW 1573; first compound 0.02 µM
  relative viability: 0.119
UMC-11; first compound 0.0002 µM
  relative viability: 0.309
UMC-11; first compound 0.000632 µM
  relative viability: 0.332
UMC-11; first compound 0.002 µM
  relative viability: 0.228
UMC-11; first compound 0.006325 µM
  relative viability: 0.205
UMC-11; first compound 0.02 µM
  relative viability: 0.199
